Laboratory results as given in ChEMBL document CHEMBL3988442, “University of Dundee, Small-Polar-MMV Screening Library” (2021).

Experiment: In vitro enzyme assay to detect hydrolysis of chlorophenol red-beta-D-[…] directly proportional to the number of Toxoplasma stably expressing beta-galactosidase
Format: functional, organism-based, Toxoplasma gondii
Conditions: for IC50: Toxoplasma gondii

Row | Structure (SMILES) | IC50 [µM] | pIC50
1 | CN(C)[C@@H]1CN(C(=O)c2ccccc2Br)C[C@H]1CO | > 50.1 | –
2 | Cn1cccc1C(=O)OCCCN1CCOCC1 | > 50.1 | –
3 | O=C(N[C@H]1COC[C@@H]1N1CCCCC1)c1cnc[nH]1 | > 50.1 | –
4 | COC(=O)c1cnc(F)cn1 | > 50.1 | –
5 | CC(NCC(=O)Nc1ccc(N2CCCCCC2)cc1)c1cccs1 (configuration not stated) | 19.9 | –
6 | CCN1CCc2nc(NC(=O)c3ccncc3)sc2C1 | > 50.1 | –
7 | COCCC1(CN2CCC(C(N)=O)C2)CCC1 (configuration not stated) | > 50.1 | –
8 | COc1cccc(CNCC2CCOC2)c1 (configuration not stated) | > 50.1 | –
9 | CCCC(=O)N1CCN(C(=O)NCC)CC1 | > 50.1 | –
10 | CCNc1ncc2c(n1)CN(c1ccc(Cl)cc1)C2=O | > 50.1 | –
11 | COC(=O)c1ccc2c(c1)CCCN2S(=O)(=O)c1cn(C)c(C)n1 | 7.21 | –
12 | CSCC(CCO)NC(=O)c1cc(F)ccc1O (configuration not stated) | > 50.1 | –
13 | Nc1c[nH]nc1C(=O)NCc1cccc(Cl)c1 | > 50.1 | –
14 | Cc1nn(C)c2c(=O)n(Cc3ccc(Cl)cc3)nnc12 | > 50.1 | –
15 | CCC(CC)(CCO)CNC(=O)c1cncc(C)c1 | > 50.1 | –
16 | CCNc1ncc2c(n1)CN(c1ccc(OC(F)(F)F)cc1)C2=O | > 50.1 | –
17 | O=C(c1cc(=O)[nH][nH]1)N1CCCC2(CCC(=O)N(C3CCCC3)C2)C1 (configuration not stated) | > 50.1 | –
18 | NCc1cccc(CN2CCCC2)c1 | > 50.1 | –
19 | c1cc(SCCOCC2CCCO2)ccn1 (configuration not stated) | > 50.1 | –
20 | c1nc(N2CCNCC2)c2sccc2n1 | > 50.1 | –
21 | O=C(CN1CCCc2cc(F)cc(F)c21)Nc1ccc(Br)cn1 | 30.4 | –
22 | Cc1nc2cc(C3CCN(Cc4cccc(F)c4F)C3)nn2c(O)c1C (configuration not stated) | 10.5 | –
23 | CNC(=O)NC(=O)CCN1CCCC(C)C1 (configuration not stated) | > 50.1 | –

Row | Structure (SMILES) | IC50 [µM] | pIC50
24 | CC(=O)Nc1ncc(S(=O)(=O)Nc2ccccc2F)s1 | 31.2 | –
25 | Cn1cc(CN(C(=O)c2ccc(N)nc2)C2CC2)cn1 | > 50.1 | –
26 | CSc1ccccc1NCC(=O)NC1CC1 | > 50.1 | –
27 | OCCNc1nc2ccccc2s1 | > 50.1 | –
28 | Cc1[nH]c2ccccc2c1-c1ccnc(N[C@@H](CO)C(C)C)n1 | 19.8 | –
29 | COc1ccc(CCNC(=O)NCCCC(N)=O)cc1 | > 50.1 | –
30 | COC[C@H]1CCC[C@]12CN(Cc1cccc(C)n1)CCO2 | > 50.1 | 4.382
31 | CC(C)CSc1nnc(CN2CCCC2=O)o1 | > 50.1 | –
32 | CC(C)n1cc(S(=O)(=O)N2CCCCCC2)cn1 | > 50.1 | –
33 | CC(C)c1ocnc1C(=O)Nc1cccc(Cn2ccccc2=O)c1 | > 50.1 | –
34 | OC[C@@H]1CCCN1Cc1ccc(F)c2cccnc12 | 3.76 | –
35 | CCN(CCO)Cc1ccc(Br)c2cccnc12 | 2.26 | 5.613
36 | Fc1ccc(-c2n[nH]cc2-c2ccnc(NCCN3CCCC3)n2)cc1 | 7.48 | –
37 | CCC(C)Oc1ccc(CNCCc2c[nH]cn2)cc1Cl (configuration not stated) | 29 | –
38 | Cc1oc(-c2ccoc2)nc1CN1CCC[C@H]1CO | 4.96 | –
39 | Fc1cc(Cl)cnc1N1CCCC(c2nccn2Cc2ccccn2)C1 (configuration not stated) | > 50.1 | –
40 | COCc1ccccc1C(=O)N1CCCC(O)C1 (configuration not stated) | > 50.1 | –
41 | CC1CCC(NCCO)CC1 (configuration not stated) | > 50.1 | –
42 | CC(C)COCCC(=O)Nc1nccs1 | > 50.1 | –
43 | CC(C)CC1NCCNC1=O (configuration not stated) | > 50.1 | –
44 | O=C(c1ccc(-c2ccc(O)nc2)s1)N1CCSCC1 | 36.8 | 4.349
45 | CCc1cnc(N2CCCC(CCC(N)=O)C2)nc1 (configuration not stated) | > 50.1 | –
46 | Cc1cc(=O)n2c3c(cc(S(=O)(=O)NC4CC4)cc13)CCC2 | > 50.1 | –

Row | Structure (SMILES) | IC50 [µM] | pIC50
47 | Cc1nnc2n1N=C(c1ccccc1)CS2 | > 50.1 | –
48 | CCOc1ccc2ccccc2c1CNCC1CCNCC1 | 6.4 | –
49 | CC(C)(C)c1cn2c(n1)C(CNCc1cnn3ccccc13)CCC2 (configuration not stated) | 2.52 | –
50 | Cc1cc(-c2nc(C3CCOC3)no2)n(C)n1 (configuration not stated) | > 50.1 | –
51 | Cc1noc(CCCNC(=O)c2ccon2)n1 | > 50.1 | –
52 | Cn1ncc(C(=O)N2CCN(S(C)(=O)=O)CC2)c1Cl | > 25.1 | –
53 | O=C(CN1CCc2sccc2C1)Nc1ccnc2ccnn12 | 2.81 | 5.251
54 | CCOc1ncccc1C(=O)NCC(C)N1CCCC1 (configuration not stated) | > 50.1 | –
55 | CCOCC(=O)N1CCCn2ccnc2C1C(C)C (configuration not stated) | > 50.1 | –
56 | CN1CCN(Cc2c(-c3ccco3)[nH]c3ncccc23)CC1 | > 50.1 | –
57 | OC1CCN(c2ccnc(NCCc3ccccc3Cl)n2)C1 (configuration not stated) | 2.35 | 5.797
58 | CN(C(=O)NCCCN1CCCC1)C1CCN(c2ccccc2)C1=O (configuration not stated) | > 50.1 | –
59 | Cc1ccoc1C(=O)NC1CCN(Cc2csc3c(F)cccc23)CC1 | 8.38 | –
60 | O=C(N1CCOCC1)[C@@]12CCO[C@@H]1CCN(C1CCOCC1)C2 | > 50.1 | –
61 | CNc1cccnc1N(C)C | > 50.1 | –
62 | NCCC(=O)Nc1ccccc1 | > 50.1 | –
63 | COc1ccc(NS(=O)(=O)c2cnc(NC(C)=O)s2)cc1 | > 50.1 | –
64 | CC(=O)N1CC[C@@]2(C(=O)Nc3ccccc3)CCN(S(C)(=O)=O)CC[C@@H]12 | > 50.1 | –
65 | Cc1ccc(C(=O)NCCCNCCCN(C)C)cn1 | > 50.1 | –
66 | OC1(Cc2ccccc2F)CCNC1 (configuration not stated) | > 50.1 | –
67 | NC(=O)C[C@@H](N)c1ccccc1Cl | > 50.1 | –
